Among the data in patent publication EP0451422A1, “Pharmaceutically active fluoromethyltyrosine compounds” (MERRELL DOW PHARMACEUTICALS INC., priority 1990, dated 1991) are NOREPINEPHRINE values, retold here.

This test addresses T1, tyrosine hydroxylase (Mus musculus, UniProt P24529).
T1 construct: from tissue; host or cells: living mice
Description: In vivo inhibition of tyrosine hydroxylase (cortical norepinephrine levels in mice, HPLC with electrochemical detection). The following applies: mice injected intraperitoneally; cerebral cortices removed six hours later; norepinephrine in tissue; dose not given; control 198.2 +/- 18.4 ng/g. As to the method:
The tyrosine hydroxylase inhibitory properties of the compounds of this invention can readily be determined by standard and well known procedures. For example, determination of tyrosine hydroxylase inhibition is exemplified by a procedure wherein mice are injected intraperitoneally with a test compound, and six hours later the mice are sacrificed, the cerebral cortices removed and frozen on dry ice. The levels of norepinephrine in the tissue are measured by HPLC with electrochemical detection, according to the process of Dudley, et al, J. Pharmacol. Exp. Ther., 217, 834-840 (1981). Reduction in cortical norepinephrine levels indicates effective, in vivo inhibition of tyrosine hydroxylase. The following Table I illustrates the decreased levels of norepinephrine after treatment with a compound of this invention (2-fluoromethyl tyrosine) in relation to levels of norepinephrine present after treatment with a known inhibitor (alpha-methyl-p-tyrosine), and as compared to the amount of norepinephrine produced without treatment with a test compound (control).

T1 sequence (P24529 whole entry): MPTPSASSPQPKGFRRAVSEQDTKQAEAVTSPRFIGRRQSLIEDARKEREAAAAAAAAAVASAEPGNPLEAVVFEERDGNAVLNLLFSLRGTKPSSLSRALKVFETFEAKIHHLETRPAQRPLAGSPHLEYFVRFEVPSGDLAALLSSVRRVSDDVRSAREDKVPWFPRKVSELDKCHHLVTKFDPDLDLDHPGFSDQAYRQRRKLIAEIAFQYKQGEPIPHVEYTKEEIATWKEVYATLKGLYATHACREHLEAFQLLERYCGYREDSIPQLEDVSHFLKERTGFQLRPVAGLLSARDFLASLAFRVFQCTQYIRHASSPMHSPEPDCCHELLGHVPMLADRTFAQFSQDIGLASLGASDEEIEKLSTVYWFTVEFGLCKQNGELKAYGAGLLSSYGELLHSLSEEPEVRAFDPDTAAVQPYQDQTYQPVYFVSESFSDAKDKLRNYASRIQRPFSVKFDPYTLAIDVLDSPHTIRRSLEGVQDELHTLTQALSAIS

In turn, `N[C@@H](Cc1ccc(O)cc1CF)C(=O)O` [2-fluoromethyl-tyrosine, 2-Fluoromethyltyrosine] came in with an NOREPINEPHRINE of 124.9 ± 11.4 ng/g.
The figure for `CC(N)(Cc1ccc(O)cc1)C(=O)O` (stereo not drawn) [α-methyl-p-tyrosine] is 115.7 ± 18.6 ng/g.
